According to PMC12867150, “A fungi-derived cyclic peptide enhances Th9-mediated antitumor immunity by targeting ZAP70 and SREBP1” (The Journal of Clinical Investigation, 2025):
“And” between values parts separate entries of the source, which are not always exact repeats. Identical values can stand only once.

Experiments:
B16-OVA melanoma = assay: Adoptive transfer of OT-II Th9 cells, B16-OVA tumor growth in C57BL/6 mice (Figure 2A, 2H); type: in vivo; settings: EpA-Th9 cells vs conventional Th9 cells; result in words
Source text: (A) Schematic of the therapeutic model. C57BL/6 mice were subcutaneously inoculated with B16-OVA melanoma cells (5 × 10^5) and preconditioned with cyclophosphamide (CTX) on day 4. […] (B–G) Flow-cytometric analysis of transferred CD45.1^+ OT-II Th9 cells (B and C) and endogenous CD4^+ (D and E) and CD8^+ T cells (F and G) in spleens and tumors, showing frequencies and absolute numbers (n = 4 mice per group). (H) Tumor growth curves in B16-OVA–bearing C57BL/6 or β2-microglobulin–deficient (β2m-KO) mice following transfer of control or EpA-treated OT-II Th9 cells (n = 4 mice per group). (I) C57BL/6 mice bearing B16-OVA tumors were treated with control or EpA-induced OT-II Th9 cells (2 × 10^6, i.v., day 5), followed by anti–PD-1 antibody (200 μg, i.p.) on day 7, and (100 μg, i.p.) on day 10 and 12. Tumor growth is shown with individual trajectories (n = 6 mice per group). Statistical analysis was performed using 2-tailed unpaired Student’s t test ([…], B–G) or 1-way ANOVA with Tukey’s post hoc test (H and I). All data are presented as the mean ± SEM. *P < 0.05, **P < 0.01, ***P < 0.001. Schematic in A created using BioRender (https://Biorender.com).
C57BL/6 mice were subcutaneously injected with 5 × 10^5 B16-OVA melanoma cells. […]

Th9 cells = assay: IL-9+ Th9 cells with MEK or ERK inhibition (Figure 5H); type: cell-based, mouse; settings: for IL-9 (flow cytometric quantification): Figure 5H, individual replicates, (n = 5)
Experimental: (A) Identification and ranking of EpA-interacting proteins by affinity pulldown and LC-MS/MS, ordered by in silico binding energy predictions. […] (E) Flow-cytometric analysis of phosphorylated ZAP70 in Th9 cells 10 minutes after TCR activation (mean ± SEM, n = 3). (F) Pathway enrichment analysis of RNA-seq data showing MAPK/ERK-related pathways in EpA-treated Th9 cells. (G) Immunoblot analysis of total and phosphorylated MEK1/2 and ERK1/2 in control and EpA-treated Th9 cells. (H–L) Functional consequences of MEK or ERK inhibition in EpA-treated Th9 cells. […] Data in H–K are shown as mean ± SEM (n = 5) and in L as mean ± SEM (n = 3). Statistical significance was determined using 1-way ANOVA followed by Tukey’s test (E, H–L). *P < 0.05, **P < 0.01, ***P < 0.001, ****P < 0.0001.
T cell polarization was initiated under plate-bound anti-CD3 (2 μg/mL, clone 17A2, BioXCell, catalog BE0002) and soluble anti-CD28 (1 μg/mL, clone 37.51, BioXCell, catalog BE0015-1) stimulation, with the addition of cytokines and neutralizing antibodies specific to each subset. For Th9 cells, these included IL-4 (10 ng/mL, Peprotech, catalog 400-04), TGF-β (1 ng/mL, EPOTO Biotech, catalog HF-2021), anti–IL-12 (5 μg/mL, clone C17.8, BioXCell, catalog BE0051), and anti–IFN-γ (10 μg/mL, clone XMG1.2, BioXCell, catalog BE0055); for Th1 cells, these included IL-12 (10 ng/mL, GenScript, catalog Z03211-50) and anti–IL-4 (5 μg/mL, clone 11B11, BioXCell, catalog BE0045); for Th2 cells, these included IL-4 (50 ng/mL), anti–IFN-γ (20 μg /mL), anti–IL-12 (5 μg/mL), Th17 cells: IL-6 (20 ng/mL, EPOTO Biotech, catalog MF-1006), TGF-β (1 ng/mL), IL-1β (10 ng/mL, Peprotech, catalog AF-211-11B), anti–IFN-γ (10 μg/mL), anti–IL-12 (5 μg/mL), and anti–IL-4 (5 μg/mL); and for Tregs, these included TGF-β (3 ng/mL). After 3 days of initial culture, cells were either collected for downstream assays or continued in extended culture with refreshed cytokines to maintain lineage commitment.
The following pharmacological inhibitors were used at the indicated final concentrations: trametinib (MEK1/2 inhibitor; Selleck, catalog S4484) at 10 nM; temuterkib (ERK1/2 inhibitor; MCE, catalog HY-101494) at 100 nM; and fatostatin hydrobromide (SREBP inhibitor; MCE, catalog HY-14452A) at 5 μM. Dead cells were detected using Fixable Viability Dye eFluor 780 (eBioscience, catalog 65-0865).

anteiso-C15 Leu7 surfactin [EpA] was tested. Which tumor control (B16-OVA melanoma) did it give?
Its tumor control is “significantly improved tumor control”.

What about the “IL-9 (flow cytometric quantification)” value (Th9 cells; EpA + ERKin combination) of the same substance?
Its value is 5.8 and 5.06 and 4.72 and 7.22 and 6.36.

And the “IL-9 (flow cytometric quantification)” value (Th9 cells; EpA + MEKin combination)?
The value was 0.49 and 3.03 and 0.46 and 0.71 and 0.77.

What about the “IL-9 (flow cytometric quantification)” value (Th9 cells; single agent) of the same substance?
The value was 50.6 and 51.1 and 72.2 and 66.2 and 42.3.

And the IL-9 production (Th9 cells; trametinib 10 nM, temuterkib 100 nM, result in words)?
The IL-9 production was “unable to restore it”.
